Measurements taken from ChEMBL document CHEMBL2434905, “2-Amino-6-chloro-3,4-dihydroquinazoline: A novel 5-HT3 receptor antagonist with antidepressant character” (Bioorg Med Chem Lett, 2013).

Target: T1, 5-hydroxytryptamine receptor 3A (Mus musculus, UniProt P23979)
T1 sequence (P23979 whole entry): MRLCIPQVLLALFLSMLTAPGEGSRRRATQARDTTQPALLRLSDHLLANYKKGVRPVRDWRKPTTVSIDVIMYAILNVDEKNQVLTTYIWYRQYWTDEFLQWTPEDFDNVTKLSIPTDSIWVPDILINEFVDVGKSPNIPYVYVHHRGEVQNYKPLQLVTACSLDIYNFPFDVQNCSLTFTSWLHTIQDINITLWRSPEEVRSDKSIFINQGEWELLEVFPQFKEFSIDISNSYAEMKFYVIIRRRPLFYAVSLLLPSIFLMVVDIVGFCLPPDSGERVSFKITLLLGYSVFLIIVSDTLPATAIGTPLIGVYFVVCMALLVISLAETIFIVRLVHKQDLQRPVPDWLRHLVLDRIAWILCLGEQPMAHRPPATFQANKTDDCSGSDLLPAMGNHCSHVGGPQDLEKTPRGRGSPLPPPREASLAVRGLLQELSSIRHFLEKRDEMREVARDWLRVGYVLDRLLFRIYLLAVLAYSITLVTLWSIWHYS
Test: Displacement of [3H]LY278584 from mouse 5-HT3A receptor

Ki: 1.97 µM
Compound: NC1=Nc2cc(Cl)ccc2CN1
